In patent EP3860599B1, “(+)-ALPHA-DIHYDROTETRABENAZINE DOSAGE REGIMEN FOR TREATING MOVEMENT DISORDERS” (Adeptio Pharmaceuticals Limited, priority 2018, dated 2020):
Like-named read-outs stand apart in the source and are kept apart here.

Columns and labels:
[1] = target: T1, VMAT2 (Homo sapiens, UniProt Q05940); assay: % VMAT2 blocking in caudate and putamen by PET scan 6-7 hours after oral dosing, Example 1B; format: in vivo; settings: for receptor occupancy at 7.5 mg: po, 7.5 mg oral, PET scan 6-7 hours after administration
T1 construct: from tissue
T1 sequence (Q05940 whole entry): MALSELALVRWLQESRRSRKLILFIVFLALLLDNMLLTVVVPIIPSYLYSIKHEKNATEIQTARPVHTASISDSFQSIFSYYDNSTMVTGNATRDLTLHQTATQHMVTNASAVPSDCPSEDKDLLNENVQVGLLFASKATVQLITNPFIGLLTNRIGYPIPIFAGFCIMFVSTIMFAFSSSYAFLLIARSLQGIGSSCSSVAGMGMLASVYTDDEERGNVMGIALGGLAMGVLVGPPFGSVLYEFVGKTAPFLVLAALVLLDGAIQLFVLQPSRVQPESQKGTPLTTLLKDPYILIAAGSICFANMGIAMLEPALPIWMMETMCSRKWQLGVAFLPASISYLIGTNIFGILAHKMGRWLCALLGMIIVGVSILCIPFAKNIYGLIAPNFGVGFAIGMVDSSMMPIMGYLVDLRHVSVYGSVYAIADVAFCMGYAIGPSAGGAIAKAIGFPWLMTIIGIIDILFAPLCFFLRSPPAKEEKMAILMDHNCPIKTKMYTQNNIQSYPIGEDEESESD
Text: Complete blocking of VMAT2 is considered undesirable as this can lead to unwanted side effects, such as Parkinsonism. […] The levels of VMAT2 blocking can be determined by competitive binding studies using Positron Emission Tomography (PET). By co-administering a radioactive ligand with the compound of interest at various concentrations, the proportion of binding sites occupied can be determined (see for example, Matthews et al., "Positron emission tomography molecular imaging for drug development", Br. J. Clin. Pharmacol., 73:2, 175-186).
Volunteers 1 and 2 were the same as volunteers 1 and 2 in Example 1A described above. […] Blood sample were taken from all volunteers at 2, 4, 6 and 7 hours after drug administration. In addition, in all volunteers PET scans were initiated at 6 hours after drug administration and these were stopped at 7 hours after drug administration.

[2] = Plasma concentrations after oral dosing (solution in apple juice) of human volunteers, Example 1A; format: in vivo; settings: for concentration at 1 h / concentration at 1.5 h / concentration at 2 h / concentration at 3 h / concentration at 0.5 h: human, plasma, po; for concentration at 0.5 h / plasma concentrations: 0.5 h
Method: (+)-α-Dihydrotetrabenazine in defined amounts was administered by oral dosing (as a solution in apple juice) to six human volunteers. […] At 60 minutes after drug administration, PET scans were initiated and these were stopped at 120 minutes after drug administration. The experiment was carried out at dosages of 7.5 mg, 15 mg and 22.5 mg. […]

[3] = 7.5 mg, subject 1 (112 kg), 7.5 mg oral
[4] = 7.5 mg, subject 2 (76 kg), 7.5 mg oral
[5] = 7.5 mg, subject 3 (129 kg), 7.5 mg oral
[6] = 7.5 mg, subject 4 (59 kg), 7.5 mg oral
[7] = 7.5 mg, subject 5 (91 kg), 7.5 mg oral
[8] = 7.5 mg, subject 6 (68 kg), 7.5 mg oral
[9] = 15 mg, subject 1 (112 kg), 15 mg oral
[10] = 15 mg, subject 2 (76 kg), 15 mg oral
[11] = 15 mg, subject 3 (129 kg), 15 mg oral
[12] = 15 mg, subject 4 (59 kg), 15 mg oral
[13] = 15 mg, subject 5 (91 kg), 15 mg oral
[14] = 15 mg, subject 6 (68 kg), 15 mg oral
[15] = 22.5 mg, subject 1 (112 kg), 22.5 mg oral
[16] = 22.5 mg, subject 2 (76 kg), 22.5 mg oral
[17] = 22.5 mg, subject 3 (129 kg), 22.5 mg oral
[18] = 22.5 mg, subject 5 (91 kg), 22.5 mg oral
[19] = 22.5 mg, subject 6 (68 kg), 22.5 mg oral

COc1cc2c(cc1OC)[C@H]1C[C@@H](O)[C@H](CC(C)C)CN1CC2 [(+)-α-dihydrotetrabenazine, (R,R,R)-3-isobutyl-9,10-dimethyloxy-1,3,4,5,7,11b-hexahydro-2H-pyrido[2,1-a]isoquinolin-2-ol]
% VMAT2 blocking ([1]; after 6 hours following administration of 7.5mg): greater than 30% | difference between the %VMAT2 blocking levels in the caudate and putamen regions of the striatum ([1]; each subject, 7.5 mg): No significant difference | receptor occupancy at 7.5 mg ([1]; Example 1B subject 1 (112 kg), read-out: %VMAT2 Occupancy Caudate): 38% | receptor occupancy at 7.5 mg ([1]; Example 1B subject 1 (112 kg), read-out: %VMAT2 Occupancy Putamen): 39% | receptor occupancy at 7.5 mg ([1]; Example 1B subject 2 (76 kg), read-out: %VMAT2 Occupancy Caudate): 65% | receptor occupancy at 7.5 mg ([1]; Example 1B subject 2 (76 kg), read-out: %VMAT2 Occupancy Putamen): 63% | receptor occupancy at 7.5 mg ([1]; Example 1B subject 3 (76 kg), read-out: %VMAT2 Occupancy Caudate): 41% | receptor occupancy at 7.5 mg ([1]; Example 1B subject 3 (76 kg), read-out: %VMAT2 Occupancy Putamen): 42% | receptor occupancy at 7.5 mg ([1]; Example 1B subject 4 (95 kg), read-out: %VMAT2 Occupancy Caudate): 34% | receptor occupancy at 7.5 mg ([1]; Example 1B subject 4 (95 kg), read-out: %VMAT2 Occupancy Putamen): 32% | receptor occupancy at 7.5 mg ([1]; Example 1B subject 5 (99 kg), read-out: %VMAT2 Occupancy Caudate): 36% | receptor occupancy at 7.5 mg ([1]; Example 1B subject 5 (99 kg), read-out: %VMAT2 Occupancy Putamen): 36% | receptor occupancy at 7.5 mg ([1]; Example 1B subject 6 (107 kg), read-out: %VMAT2 Occupancy Caudate): 44% | receptor occupancy at 7.5 mg ([1]; Example 1B subject 6 (107 kg), read-out: %VMAT2 Occupancy Putamen): 49% | reduction of level of blocking after 6-7 hours compared to the %VMAT2 blocking after 1-2 hours following administration ([1]; subject 1, 7.5 mg): 30% | reduction of level of blocking after 6-7 hours compared to the %VMAT2 blocking after 1-2 hours following administration ([1]; subject 2, 7.5 mg): 11% | concentration at 1 h [2, 3]: 0.00094 µg/mL | concentration at 1.5 h [2, 3]: 0.00239 µg/mL | concentration at 2 h [2, 3]: 0.00244 µg/mL | concentration at 3 h [2, 3]: 0.00301 µg/mL | concentration at 0.5 h [2, 4]: 0.000531 µg/mL | concentration at 1 h [2, 4]: 0.0137 µg/mL | concentration at 1.5 h [2, 4]: 0.0108 µg/mL | concentration at 2 h [2, 4]: 0.014 µg/mL | concentration at 3 h [2, 4]: 0.0222 µg/mL | concentration at 0.5 h [2, 5]: 0.000216 µg/mL | concentration at 1 h [2, 5]: 0.00435 µg/mL | concentration at 1.5 h [2, 5]: 0.00691 µg/mL | concentration at 2 h [2, 5]: 0.00503 µg/mL | concentration at 3 h [2, 5]: 0.00696 µg/mL | concentration at 0.5 h [2, 6]: 0.00843 µg/mL | concentration at 1 h [2, 6]: 0.015 µg/mL | concentration at 1.5 h [2, 6]: 0.0207 µg/mL | concentration at 2 h [2, 6]: 0.0176 µg/mL | concentration at 3 h [2, 6]: 0.0196 µg/mL | concentration at 0.5 h [2, 7]: 0.00668 µg/mL | concentration at 1 h [2, 7]: 0.0098 µg/mL | concentration at 1.5 h [2, 7]: 0.0135 µg/mL | concentration at 2 h [2, 7]: 0.0107 µg/mL | concentration at 3 h [2, 7]: 0.0112 µg/mL | concentration at 1 h [2, 8]: 0.00377 µg/mL | concentration at 1.5 h [2, 8]: 0.00306 µg/mL | concentration at 2 h [2, 8]: 0.00433 µg/mL | concentration at 3 h [2, 8]: 0.00918 µg/mL | concentration at 0.5 h [2, 9]: 0.00402 µg/mL | concentration at 1 h [2, 9]: 0.0111 µg/mL | concentration at 1.5 h [2, 9]: 0.0107 µg/mL | concentration at 2 h [2, 9]: 0.0102 µg/mL | concentration at 3 h [2, 9]: 0.0106 µg/mL | concentration at 0.5 h [2, 10]: 0.00799 µg/mL | concentration at 1 h [2, 10]: 0.0228 µg/mL | concentration at 1.5 h [2, 10]: 0.0464 µg/mL | concentration at 2 h [2, 10]: 0.0357 µg/mL | concentration at 3 h [2, 10]: 0.0465 µg/mL | concentration at 0.5 h [2, 11]: 0.0012 µg/mL | concentration at 1 h [2, 11]: 0.0143 µg/mL | concentration at 1.5 h [2, 11]: 0.0179 µg/mL | concentration at 2 h [2, 11]: 0.012 µg/mL | concentration at 3 h [2, 11]: 0.0182 µg/mL | concentration at 0.5 h [2, 12]: 0.0267 µg/mL | concentration at 1 h [2, 12]: 0.0538 µg/mL | concentration at 1.5 h [2, 12]: 0.0425 µg/mL | concentration at 2 h [2, 12]: 0.0533 µg/mL | concentration at 3 h [2, 12]: 0.0602 µg/mL | concentration at 0.5 h [2, 13]: 0.0156 µg/mL | concentration at 1 h [2, 13]: 0.0342 µg/mL | concentration at 1.5 h [2, 13]: 0.0271 µg/mL | concentration at 2 h [2, 13]: 0.0318 µg/mL | concentration at 3 h [2, 13]: 0.0271 µg/mL | concentration at 0.5 h [2, 14]: 0.00541 µg/mL | concentration at 1 h [2, 14]: 0.0106 µg/mL | concentration at 1.5 h [2, 14]: 0.0161 µg/mL | concentration at 2 h [2, 14]: 0.0174 µg/mL | concentration at 3 h [2, 14]: 0.0149 µg/mL | concentration at 0.5 h [2, 15]: 0.00961 µg/mL | concentration at 1 h [2, 15]: 0.018 µg/mL | concentration at 1.5 h [2, 15]: 0.0168 µg/mL | concentration at 2 h [2, 15]: 0.0149 µg/mL | concentration at 3 h [2, 15]: 0.0132 µg/mL | concentration at 0.5 h [2, 16]: 0.00523 µg/mL | concentration at 1 h [2, 16]: 0.0218 µg/mL | concentration at 1.5 h [2, 16]: 0.0362 µg/mL | concentration at 2 h [2, 16]: 0.0402 µg/mL | concentration at 3 h [2, 16]: 0.0518 µg/mL | concentration at 0.5 h [2, 17]: 0.00904 µg/mL | concentration at 1 h [2, 17]: 0.0347 µg/mL | concentration at 1.5 h [2, 17]: 0.0298 µg/mL | concentration at 2 h [2, 17]: 0.0263 µg/mL | concentration at 3 h [2, 17]: 0.0173 µg/mL | concentration at 0.5 h [2, 18]: 0.0553 µg/mL | concentration at 1 h [2, 18]: 0.0451 µg/mL | concentration at 1.5 h [2, 18]: 0.0462 µg/mL | concentration at 2 h [2, 18]: 0.0419 µg/mL | concentration at 3 h [2, 18]: 0.0425 µg/mL | concentration at 0.5 h [2, 19]: 0.00558 µg/mL | concentration at 1 h [2, 19]: 0.00801 µg/mL | concentration at 1.5 h [2, 19]: 0.00587 µg/mL | concentration at 2 h [2, 19]: 0.0125 µg/mL | concentration at 3 h [2, 19]: 0.0187 µg/mL | plasma concentrations ([2]; subject 1 (112 kg), 7.5 mg oral): BLQ | plasma concentrations ([2]; subject 6 (68 kg), 7.5 mg oral): BLQ
